Values of other authors, collected in patent US9555001B2, “Pharmaceutical composition and uses thereof” (Boehringer Ingelheim International GmbH, priority 2012, dated 2017).

Details: crystalline form described in WO 2006/117359

physico-chemical stability: physico-chemically stable
solubility: good solubility properties
Structure (SMILES): OC[C@H]1O[C@@H](c2ccc(Cl)c(Cc3ccc(O[C@H]4CCOC4)cc3)c2)[C@H](O)[C@@H](O)[C@@H]1O [Compound “A”, 1-chloro-4-(β-D-glucopyranos-1-yl)-2-[4-((S)-tetrahydrofuran-3-yloxy)-benzyl]-benzene]
